The record followed here is ChEMBL document CHEMBL4342436, “Artemisia: a promising plant for the treatment of cancer” (Bioorg Med Chem, 2020).

≈ marks a conversion by molar mass, not a printed value.

Data set [1] deals with HepG2. The data set can be described thus: Cytotoxicity against human HepG2 cells. The data set is classed as functional, cell-based.
Data set [2] relates to KB. The data set can be described thus: (§1) Cytotoxicity against human KB cells. The data set is classed as functional, cell-based.
The next data set has as its system LNCaP. The data set can be described thus: Cytotoxicity against human LNCAP cells. The data set is classed as functional, cell-based.
Data set [3] concerns MCF7. Nature of the data set: (§2) Cytotoxicity against human MCF7 cells. It counts as functional, cell-based.
Another data set relates to SK-MEL-2. The data set can be described thus: Cytotoxicity against human SK-MEL-2 cells. The data set is classed as functional, cell-based.
Another data set relates to NCI-H460. The data set can be described thus: Cytotoxicity against human NCI-H460 cells after 24 hrs by MTT assay. It counts as functional, cell-based. Particulars: NCI-H460, 24 h.
Data set [4] has as its system MCF7. The data set can be described thus: Cytotoxicity against human MCF7 cells after 24 hrs by MTT assay. The data set is classed as functional, cell-based. The settings on record: MCF7, 24 h.
Data set [5] concerns HepG2. The data set can be described thus: Cytotoxicity against human HepG2 cells after 24 hrs by MTT assay. Particulars: HepG2, 24 h. It counts as functional, cell-based.
Data set [6] is described as follows: Cytotoxicity against human PG100 cells assessed as cell viability at 955.2 ug/mL after 24 hrs by MTT assay relative to control. It counts as functional. The settings on record: read-out: Activity.
For data set [7], the system named is MCF7. Nature of the data set: Cytotoxicity against human MCF7 cells at 50 nM in presence of doxorubicin relative to control. The data set is classed as functional.
The subject of another data set is HeLa. The data set can be described thus: Cytotoxicity against human HeLa cells. The data set is classed as functional, cell-based.
The next data set relates to SK-N-AS. Nature of the data set: Induction of apoptosis in human SK-N-AS cells assessed as apoptotic cells at 300 uM after 72 hrs by Annexin V-FITC/propidium iodide staining based flow cytometric analysis relative to control. It counts as functional.
In the next data set the test system is BE(2)-C. Nature of the data set: Induction of apoptosis in human BE(2)-C cells assessed as apoptotic cells at 300 uM after 72 hrs by Annexin V-FITC/propidium iodide staining based flow cytometric analysis relative to control. The data set is classed as functional.
Another data set relates to SK-N-DZ. Nature of the data set: Induction of apoptosis in human SK-N-DZ cells assessed as apoptotic cells at 300 uM after 72 hrs by Annexin V-FITC/propidium iodide staining based flow cytometric analysis relative to control. It counts as functional.
Data set [8] in a line: Induction of apoptosis in human SH-EP1 cells assessed as apoptotic cells at 300 uM after 72 hrs by Annexin V-FITC/propidium iodide staining based flow cytometric analysis relative to control. It counts as functional.
For another data set, the system named is Lymphocyte. The data set can be described thus: Induction of apoptosis in human Lymphocyte cells assessed as apoptotic cells at 2 ug/ml after 24 hrs by Annexin V-FITC/propidium iodide staining based fluorescence microscopic method relative to control. It counts as cell-based.
Data set [9] is described as follows: Cytotoxicity against rat pancreatic tumour cells assessed as reduction in cell viability after 24 hrs by MTT assay. The data set is classed as functional, cell-based.
A short description of data set [10]: Growth inhibition of human A375P cells at 150 uM after 72 hrs by MTT assay relative to control. The data set is classed as functional. The settings on record: read-out: GI.
Data set [11] can be described thus: Growth inhibition of human A375M cells at 150 uM after 72 hrs by MTT assay relative to control. The data set is classed as functional. Particulars: read-out: GI.
Another data set concerns HT-29. Nature of the data set: Cytotoxicity against human HT-29 cells. It counts as functional. The settings on record: read-out: ED50 (the source's name).
Another data set has as its system P388. Nature of the data set: Cytotoxicity against mouse P388 cells. It counts as functional. The settings on record: read-out: ED50 (the source's name).
Data set [12] deals with MCF7. The data set is described as §2. It counts as functional. The settings on record: read-out: ED50 (the source's name).
Data set [13] concerns KB. Described as §1. The data set is classed as functional. Particulars: read-out: ED50 (the source's name).
A short description of data set [14]: Antitumour activity against mouse mammary cancer cells transplanted in Balb/c mouse assessed as tumour size at 6 mg/kg, ip for 13 days. The data set is classed as functional.
A further data set relates to C6. Nature of the data set: Induction of apoptosis in rat C6 cells assessed as apoptotic cells at 200 uM after 24 hr in presence of holo-transferrin by Annexin V-FITC/propidium iodide staining based flow cytometric analysis relative to control. The data set is classed as functional.
Data set [15] has as its system U-937. The data set can be described thus: Induction of apoptosis in human U937 cells assessed as increase in apoptotic cells at 60 uM after 24 hrs by Annexin V-FITC/propidium iodide staining based flow cytometric analysis relative to control. It counts as functional.
Data set [16] concerns U-937. The data set can be described thus: Antitumour activity against human U937 cells xenografted in NOD/SCID mouse assessed as tumor growth inhibition at 50 mg/kg, ip for 20 days relative to control. The data set is classed as functional. The settings on record: U-937, ip, 480 h, read-out: TGI.
The nature of data set [17]: Cytotoxicity against human U373 cells assessed as reduction in cell viability after 24 hrs by MTT assay. The data set is classed as functional, cell-based, U-373MG ATCC. Particulars: U373 MG.
Data set [18] is described as follows: Cytotoxicity against human U251/CP2 cells assessed as reduction in cell viability after 24 hrs by MTT assay. The data set is classed as functional, cell-based. Particulars: U-251, 24 h.
The next data set deals with HCT-116. Nature of the data set: Induction of apoptosis in human HCT116 cells assessed as increase in apoptotic cells at 40 uM after 24 hrs by Annexin V-FITC/propidium iodide staining based flow cytometric analysis relative to control. It counts as functional.
Another data set concerns PC-14. The data set can be described thus: Induction of apoptosis in human PC14 cells assessed as increase in apoptotic cells at 30 uM after 24 hrs by Annexin V-FITC/propidium iodide staining based flow cytometric analysis relative to control. It counts as functional.
Another data set concerns CCRF-CEM. The data set can be described thus: Cytotoxicity against human CCRF-CEM cells. The data set is classed as functional. Particulars: read-out: ED50 (the source's name).
In another data set the test system is HL-60(TB). Nature of the data set: Cytotoxicity against human HL-60(TB) cells. The data set is classed as functional. The settings on record: read-out: ED50 (the source's name).
The next data set concerns K562. Nature of the data set: Cytotoxicity against human K562 cells. It counts as functional. Particulars: read-out: ED50 (the source's name).
For a further data set, the system named is MKN-1. Nature of the data set: Antiproliferative activity against human MKN1 cells assessed as reduction in cell viability after 24 hrs by CCK8 assay. Particulars: MKN-1, 24 h. It counts as functional, cell-based.
The subject of a further data set is AGS. Nature of the data set: Antiproliferative activity against human AGS cells assessed as reduction in cell viability after 24 hrs by CCK8 assay. It counts as functional, cell-based.
The nature of data set [19]: Antiproliferative activity against human SNU484 cells assessed as reduction in cell viability after 24 hrs by CCK8 assay. The data set is classed as functional, cell-based. Particulars: SNU-484, 24 h.
Data set [20] can be described thus: Antiproliferative activity against human SNU601 cells assessed as reduction in cell viability after 24 hrs by CCK8 assay. The data set is classed as functional, cell-based. Particulars: SNU-601, 24 h.
A further data set concerns SNU-638. The data set can be described thus: Antiproliferative activity against human SNU638 cells assessed as reduction in cell viability after 24 hrs by CCK8 assay. The data set is classed as functional, cell-based. Particulars: SNU-638, 24 h.
The next data set deals with U-87 MG. The data set can be described thus: Induction of apoptosis in human U87MG cells assessed as increase in apoptotic cells at 50 uM after 24 hrs by Annexin V-FITC/propidium iodide staining based flow cytometric analysis relative to control. It counts as functional, U-87MG ATCC.
In another data set the test system is HL-60. The data set can be described thus: Antiproliferative activity against human HL60 cells assessed as cell viability at 150 uM by MTT assay relative to control. It counts as functional. The settings on record: read-out: Activity.
The next data set relates to MCF-10A. The data set can be described thus: Induction of apoptosis n human MCF10A transformed with RAS gene at 100 uM by flow cytometric analysis relative to control. The data set is classed as functional.
The next data set deals with THP-1. The data set can be described thus: Cytotoxicity against human THP1 cells after 48 hrs by trypan blue dye exclusion counting method. The settings on record: THP-1, 48 h. The data set is classed as functional, cell-based.
Data set [21] can be described thus: Cytotoxicity against human 95-D cells by SRB assay. It counts as functional, cell-based.

As for `C=C1C(=O)O[C@H]2[C@H]1CC[C@@](C)(O)C1=C[C@@H](O)[C@@](C)(O)[C@@H]12`, the IC50 in the data set with HepG2 [1], with KB [2], in the data set on LNCaP, with MCF7 [3] and in the data set with SK-MEL-2 was over 100 µM each time.
For the compound `CC1=CC(=O)C2=C(C)C[C@@H](O[C@@H]3O[C@H](CO)[C@@H](O)[C@H](O)[C@H]3O)[C@@H]3[C@@H](OC(=O)[C@H]3C)[C@@H]12`, the IC50 in the data set on NCI-H460, in the data set with MCF7 [4] and with HepG2 [5] was 26.8 to 48.7 µM throughout.
Take `CO[C@H]1O[C@@H]2O[C@@]3(C)CC[C@H]4[C@H](C)CC[C@@H]([C@H]1C)[C@@]24OO3`: the viability at 955.2 µg/mL in [6] is 5.55%. In the data set with MCF7 [7], the Activity worked out at 50%.
The compound `O=c1cc(-c2ccc(O)cc2)oc2cc(O)cc(O)c12` [APIGENIN] had an IC50 in the data set with HeLa of 6.09 µM.
On to `C[C@@H]1CC[C@H]2[C@@H](C)C(=O)O[C@@H]3O[C@@]4(C)CC[C@@H]1[C@]32OO4` [ARTEMISININ], for which the Activity turned out to be 22% with SK-N-AS; 42% in the data set with BE(2)-C; 40% in the data set on SK-N-DZ; 23% in data set [8]; 70% in the data set with Lymphocyte. The IC50 in data set [9] is 45 µM. For the same compound, the inhibition of growth at 150 µM in data set [10] worked out at 68%; in data set [11], 60%. In addition, the EC50 with HT-29, in the data set on P388, with MCF7 [12] and in the data set with KB [13] was 1.25 to 9.62 µg/mL (≈ 4.43 to 34.1 µM) each time.
Turning to `CCO[C@H]1O[C@@H]2O[C@@]3(C)CC[C@H]4[C@H](C)CC[C@@H]([C@H]1C)[C@@]24OO3` [ARTEMOTIL], in [14], the Activity stood at 800 mm3.
Turning to `C[C@H]1[C@@H](O)O[C@@H]2O[C@@]3(C)CC[C@H]4[C@H](C)CC[C@@H]1[C@@]24OO3` [ARTENIMOL], the Activity in the data set on C6 is 66.42%; in the data set on U-937 [15] it was 70%; in the data set with HCT-116, 48.3%; in the data set with PC-14 it was 45%. The inhibition in vivo at 50 mg/kg in the data set with U-937 [16] is 70%. Moreover, the IC50 in data set [17] and in data set [18] was 1.17 to 23.6 µg/mL (≈ 4.11 to 82.9 µM) in each case.
With `C=C1C(=O)O[C@@H]2O[C@@]3(C)CC[C@H]4[C@H](C)CC[C@@H]1[C@@]24O3` [DEOXYARTEMISITENE], the EC50 in the data set on CCRF-CEM worked out at 0.92 µg/mL (≈ 3.48 µM); in the data set on HL-60(TB) it was 0.62 µg/mL (≈ 2.35 µM); in the data set with K562, 0.94 µg/mL (≈ 3.56 µM).
For `COc1ccc(-c2cc(=O)c3c(O)c(OC)c(O)cc3o2)cc1OC` [EUPATILIN], the IC50 (in the data set with MKN-1; with AGS; in [19]; in data set [20]; in the data set with SNU-638) was 50 to 100 µM each time. In addition, the Activity in the data set with U-87 MG was 40%. Also, the viability at 150 µM in the data set on HL-60 was 50%.
Consider `COc1cc(-c2cc(=O)c3c(O)c(OC)c(O)cc3o2)ccc1O` [JACEOSIDINE], for which the Activity in the data set on MCF-10A is 48.72%. In addition, the IC50 in the data set on THP-1 was 70.5 µM.
As to `O=c1cc(-c2ccc(O)c(O)c2)oc2cc(O)cc(O)c12` [LUTEOLIN], it took 16.3 µM to reach half-maximal inhibition in the data set with HeLa (IC50).
On to `CC1(C)CCC[C@@]2(C)[C@H]1[C@H](O)C=C1COC(=O)[C@@]12O` [STROBILACTONE A], for which the IC50 in data set [21] was 19.8 µM.
